The series is described as follows: Solubility testing of aplidine. In kind it is physicochemical. The following applies: water. The text has this:
The antitumour agent aplidine (dehydrodidemnin B) is a natural occurring cyclic depsipeptide isolated from the Mediterranean runicate Aplidium albicans. Aplidine has been characterised by using several chromatographic and spectrometric techniques. […] Moreover, the long-term stability of aplidine in solution is currently unknown.

On to dehydrodidemnin B [aplidine], for which the aqueous solubility result was “poor aqueous solubility”.

Values taken from US8420130B1, “Pharmaceutical formulation of a didemnin compound” (Pharma Mar S.A., priority 1998, dated 2013).
